Experimental data taken from PubChem BioAssay (NCI).
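Values below derive from 48-hour exposures of cells grown in 96-well plates, with endpoints linearly interpolated between the two concentrations bracketing the appropriate inhibition level. At the GI50, growth is halved. TGI marks complete inhibition of growth.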

What was measured:
Test in all cases: NCI tumour cell line growth inhibition, 48 h
HOP-62 NSCLC = test system: HOP-62 NSCLC
MCF7 breast = test system: MCF7 breast
U251 CNS = test system: U251 CNS
LOX IMVI melanoma = test system: LOX IMVI melanoma
K-562 leukemia = test system: K-562 leukemia
SNB-19 CNS = test system: SNB-19 CNS
OVCAR-3 ovarian = test system: OVCAR-3 ovarian
NCI-H226 lung = test system: NCI-H226 lung
UACC-257 melanoma = test system: UACC-257 melanoma
IGROV1 ovarian = test system: IGROV1 ovarian
HCC-2998 colon = test system: HCC-2998 colon
T-47D breast = test system: T-47D breast
SF-539 CNS = test system: SF-539 CNS
RPMI-8226 leukemia = test system: RPMI-8226 leukemia
SF-268 CNS = test system: SF-268 CNS
HCT-15 colon = test system: HCT-15 colon
SK-MEL-5 melanoma = test system: SK-MEL-5 melanoma
NCI-H522 lung = test system: NCI-H522 lung
UO-31 renal = test system: UO-31 renal
SF-295 CNS = test system: SF-295 CNS
SK-OV-3 ovarian = test system: SK-OV-3 ovarian
OVCAR-4 ovarian = test system: OVCAR-4 ovarian
MDA-MB-468 breast = test system: MDA-MB-468 breast
OVCAR-8 ovarian = test system: OVCAR-8 ovarian
MDA-MB-231 breast = test system: MDA-MB-231 breast
M14 melanoma = test system: M14 melanoma
MDA-MB-435 = test system: MDA-MB-435
SR leukemia = test system: SR leukemia
HS 578T breast = test system: HS 578T breast
NCI-H460 lung = test system: NCI-H460 lung
KM12 colon = test system: KM12 colon
HCT-116 colon = test system: HCT-116 colon
RXF 393 renal = test system: RXF 393 renal
DU-145 prostate = test system: DU-145 prostate
SW-620 colon = test system: SW-620 colon
TK-10 renal = test system: TK-10 renal
CCRF-CEM leukemia = test system: CCRF-CEM leukemia
PC-3 prostate = test system: PC-3 prostate
MALME-3M melanoma = test system: MALME-3M melanoma
HOP-92 NSCLC = test system: HOP-92 NSCLC
SK-MEL-28 melanoma = test system: SK-MEL-28 melanoma
A498 renal = test system: A498 renal
NCI/ADR-RES ovarian = test system: NCI/ADR-RES ovarian
HT29 colon = test system: HT29 colon
BT-549 breast = test system: BT-549 breast
SN12C renal = test system: SN12C renal
CAKI-1 renal = test system: CAKI-1 renal
786-0 renal = test system: 786-0 renal
A549 NSCLC = test system: A549 NSCLC
UACC-62 melanoma = test system: UACC-62 melanoma
HL-60(TB) leukemia = test system: HL-60(TB) leukemia
ACHN renal = test system: ACHN renal
OVCAR-5 ovarian = test system: OVCAR-5 ovarian
EKVX NSCLC = test system: EKVX NSCLC
SNB-75 CNS = test system: SNB-75 CNS
NCI-H23 lung = test system: NCI-H23 lung
SK-MEL-2 melanoma = test system: SK-MEL-2 melanoma
MOLT-4 leukemia = test system: MOLT-4 leukemia
COLO 205 colon = test system: COLO 205 colon

Structure (SMILES): C=C1CCC2C3(C)COC(c4ccc(F)cc4)OC3CCC2(C)C1C/C=C1/C(=O)OCC1O (configuration not stated)
- GI50 (HOP-62 NSCLC): 10.7 µM
- TGI (HOP-62 NSCLC): 22.9 µM
- GI50 (MCF7 breast): 1.1 µM
- TGI (MCF7 breast): 2.88 µM
- GI50 (U251 CNS): 1.66 µM
- TGI (U251 CNS): 3.09 µM
- GI50 (LOX IMVI melanoma): 1.5 µM
- TGI (LOX IMVI melanoma): 2.83 µM
- GI50 (K-562 leukemia): 2.09 µM
- GI50 (SNB-19 CNS): 4.84 µM
- TGI (SNB-19 CNS): 16.9 µM
- GI50 (OVCAR-3 ovarian): 1.83 µM
- TGI (OVCAR-3 ovarian): 3.6 µM
- GI50 (NCI-H226 lung): 1.81 µM
- TGI (NCI-H226 lung): 3.58 µM
- GI50 (UACC-257 melanoma): 2.04 µM
- TGI (UACC-257 melanoma): 5.28 µM
- GI50 (IGROV1 ovarian): 2.78 µM
- TGI (IGROV1 ovarian): 10.1 µM
- GI50 (HCC-2998 colon): 2.67 µM
- TGI (HCC-2998 colon): 8.69 µM
- GI50 (T-47D breast): 2.14 µM
- TGI (T-47D breast): 9.87 µM
- GI50 (SF-539 CNS): 1.76 µM
- TGI (SF-539 CNS): 3.16 µM
- GI50 (RPMI-8226 leukemia): 1.83 µM
- TGI (RPMI-8226 leukemia): 5.05 µM
- GI50 (SF-268 CNS): 3.53 µM
- TGI (SF-268 CNS): 14.4 µM
- GI50 (HCT-15 colon): 1.41 µM
- TGI (HCT-15 colon): 3.24 µM
- GI50 (SK-MEL-5 melanoma): 2.73 µM
- TGI (SK-MEL-5 melanoma): 8.58 µM
- GI50 (NCI-H522 lung): 1.45 µM
- TGI (NCI-H522 lung): 2.91 µM
- GI50 (UO-31 renal): 1.55 µM
- TGI (UO-31 renal): 3.67 µM
- GI50 (SF-295 CNS): 1.87 µM
- TGI (SF-295 CNS): 4.64 µM
- GI50 (SK-OV-3 ovarian): 14.4 µM
- TGI (SK-OV-3 ovarian): 27.8 µM
- GI50 (OVCAR-4 ovarian): 2.11 µM
- TGI (OVCAR-4 ovarian): 5.9 µM
- GI50 (MDA-MB-468 breast): 1.67 µM
- TGI (MDA-MB-468 breast): 3.21 µM
- GI50 (OVCAR-8 ovarian): 1.54 µM
- TGI (OVCAR-8 ovarian): 3.4 µM
- GI50 (MDA-MB-231 breast): 1.92 µM
- TGI (MDA-MB-231 breast): 4.03 µM
- GI50 (M14 melanoma): 2.2 µM
- TGI (M14 melanoma): 5.92 µM
- GI50 (MDA-MB-435): 1.84 µM
- TGI (MDA-MB-435): 4.48 µM
- GI50 (SR leukemia): 2.44 µM
- TGI (SR leukemia): 6.51 µM
- GI50 (HS 578T breast): 2.7 µM
- TGI (HS 578T breast): 9.69 µM
- GI50 (NCI-H460 lung): 2.02 µM
- TGI (NCI-H460 lung): 5.48 µM
- GI50 (KM12 colon): 2.81 µM
- TGI (KM12 colon): 7.72 µM
- GI50 (HCT-116 colon): 1.42 µM
- TGI (HCT-116 colon): 2.74 µM
- GI50 (RXF 393 renal): 2.41 µM
- TGI (RXF 393 renal): 6.54 µM
- GI50 (DU-145 prostate): 3.86 µM
- TGI (DU-145 prostate): 13.8 µM
- GI50 (SW-620 colon): 1.25 µM
- TGI (SW-620 colon): 2.71 µM
- GI50 (TK-10 renal): 3.85 µM
- TGI (TK-10 renal): 14.9 µM
- GI50 (CCRF-CEM leukemia): 1.24 µM
- TGI (CCRF-CEM leukemia): 5.2 µM
- GI50 (PC-3 prostate): 2.19 µM
- TGI (PC-3 prostate): 5.92 µM
- GI50 (MALME-3M melanoma): 2.06 µM
- TGI (MALME-3M melanoma): 5.16 µM
- GI50 (HOP-92 NSCLC): 2.17 µM
- TGI (HOP-92 NSCLC): 6.46 µM
- GI50 (SK-MEL-28 melanoma): 1.94 µM
- TGI (SK-MEL-28 melanoma): 4.02 µM
- GI50 (A498 renal): 13.7 µM
- TGI (A498 renal): 27 µM
- GI50 (NCI/ADR-RES ovarian): 1.67 µM
- TGI (NCI/ADR-RES ovarian): 3.55 µM
- GI50 (HT29 colon): 1.78 µM
- TGI (HT29 colon): 3.85 µM
- GI50 (BT-549 breast): 1.65 µM
- TGI (BT-549 breast): 3.19 µM
- GI50 (SN12C renal): 1.48 µM
- TGI (SN12C renal): 3.18 µM
- GI50 (CAKI-1 renal): 3.06 µM
- TGI (CAKI-1 renal): 11.5 µM
- GI50 (786-0 renal): 1.74 µM
- TGI (786-0 renal): 3.15 µM
- GI50 (A549 NSCLC): 3.07 µM
- TGI (A549 NSCLC): 13.1 µM
- GI50 (UACC-62 melanoma): 1.94 µM
- TGI (UACC-62 melanoma): 4.8 µM
- GI50 (HL-60(TB) leukemia): 1.74 µM
- TGI (HL-60(TB) leukemia): 4.93 µM
- GI50 (ACHN renal): 1.69 µM
- TGI (ACHN renal): 3.06 µM
- GI50 (OVCAR-5 ovarian): 2.01 µM
- TGI (OVCAR-5 ovarian): 4.9 µM
- GI50 (EKVX NSCLC): 4.57 µM
- TGI (EKVX NSCLC): 17.2 µM
- GI50 (SNB-75 CNS): 1.58 µM
- TGI (SNB-75 CNS): 7.57 µM
- GI50 (NCI-H23 lung): 3.08 µM
- TGI (NCI-H23 lung): 11.5 µM
- GI50 (SK-MEL-2 melanoma): 1.89 µM
- TGI (SK-MEL-2 melanoma): 3.89 µM
- GI50 (MOLT-4 leukemia): 2.79 µM
- TGI (MOLT-4 leukemia): 8.13 µM
- GI50 (COLO 205 colon): 1.86 µM
- TGI (COLO 205 colon): 3.47 µM
